Values belong to the compound of their own block, whether it stands above or below them.
What was measured:
[1] = test system: Pfeiffer human tumor xenograft model of diffuse large B-cell lymphoma; experiment: Pfeiffer Model of Lymphoma (Example D); format: in vivo; details: SCID mice
Experimental: Female SCID mice, (5 to 8 weeks of age, Charles River Laboratories, Wilmington, Mass.) were inoculated with 1×10^7 tumor cells (Pfeiffer, ATCC #CRL-2632, Manassas, Va.) and matrigel (BD Biosciences #354234) in 0.2 mL sterile saline. The inoculation was performed subcutaneously on the flank. Tumor tissue fragments (approximately 3 mm×3 mm) were collected 3 to 6 weeks after the inoculation of cultured cells and implanted subcutaneously in lieu of cellular inoculation. Tissue fragments were implanted as solid pieces using blunt-tip forceps. The treatment of tumor bearing mice was started 15 to 25 days after tumor inoculation, depending upon the tumor size. Animals were sorted to obtain roughly equivalent mean tumor volumes in each group. Minimum mean tumor volume in all groups was 150 mm3 on the first day of treatment and groups consisted of 7 animals. Experimental therapeutic agent, Example 347, was administered to mice orally (PO). Treatment frequency was 2 times daily for a minimum of 14 days for efficacy. The size of subcutaneous tumors was measured 2 to 3 times weekly using a digital caliper. The tumor volume was calculated by measuring the tumor in 2 dimensions and utilizing the equation: Volume=[Length×(Width2)]/2; where the larger number was length, and the smaller number width. If multiple tumors were formed, the final volume was the sum of the individual tumors subject to the same equation: eg, 2 tumors; Volume={[L1×(W1)2]/2}+{[L2×(W2)2]/2}. Effects on tumor growth were reported as percent tumor growth inhibition (% TGI). Percent TGI was calculated with the equation: (1−(Tx vol./control vol.))*100, where control volume was the vehicle or untreated tumor volume on a given day, and Tx volume was any treatment group tumor volume on that same day. Statistical differences between treatment and vehicle controls were assessed using ANOVA: Single Factor test.

[2] = test system: Pfeiffer cell line (diffuse large B cell lymphoma); experiment: Pfeiffer Cell Proliferation Assay (Example B2); format: cell-based, human
Experimental: Pfeiffer cell line (diffuse large B cell lymphoma) are purchased from ATCC (Manassas, Va.) and maintained in the culture medium recommended (RPMI and 10% FBS). To measure the anti-proliferation activity of the compounds, the Pfeiffer cells are plated with the culture medium (2×10^3 cells well per […]) into 96-well ultra-low binding plates (Corning, Corning, N.Y.), in the presence or absence of a concentration range of test compounds. After 3-4 days, [^3H]-thymidine (1 μCi/well) (PerkinElmer, Boston, Mass.) in PBS is then added to the cell culture for an additional 12 hours before the incorporated radioactivity is separated by filtration with water through GF/B filters (Packard Bioscience, Meriden, Conn.) and measured by liquid scintillation counting with a TopCount (Packard Bioscience).

[3] = target: PI3Kδ (p110δ/p85α) (Homo sapiens (Human), UniProt O00329); experiment: PI3Kδ Scintillation Proximity Assay (Example A3); format: biochemical; details: 20 μM ATP, 20 μM PIP2, 4 nM PI3Kδ, read-out: PI3Kδ SPA IC50
Sequence of PI3Kδ (p110δ/p85α) (O00329 whole entry): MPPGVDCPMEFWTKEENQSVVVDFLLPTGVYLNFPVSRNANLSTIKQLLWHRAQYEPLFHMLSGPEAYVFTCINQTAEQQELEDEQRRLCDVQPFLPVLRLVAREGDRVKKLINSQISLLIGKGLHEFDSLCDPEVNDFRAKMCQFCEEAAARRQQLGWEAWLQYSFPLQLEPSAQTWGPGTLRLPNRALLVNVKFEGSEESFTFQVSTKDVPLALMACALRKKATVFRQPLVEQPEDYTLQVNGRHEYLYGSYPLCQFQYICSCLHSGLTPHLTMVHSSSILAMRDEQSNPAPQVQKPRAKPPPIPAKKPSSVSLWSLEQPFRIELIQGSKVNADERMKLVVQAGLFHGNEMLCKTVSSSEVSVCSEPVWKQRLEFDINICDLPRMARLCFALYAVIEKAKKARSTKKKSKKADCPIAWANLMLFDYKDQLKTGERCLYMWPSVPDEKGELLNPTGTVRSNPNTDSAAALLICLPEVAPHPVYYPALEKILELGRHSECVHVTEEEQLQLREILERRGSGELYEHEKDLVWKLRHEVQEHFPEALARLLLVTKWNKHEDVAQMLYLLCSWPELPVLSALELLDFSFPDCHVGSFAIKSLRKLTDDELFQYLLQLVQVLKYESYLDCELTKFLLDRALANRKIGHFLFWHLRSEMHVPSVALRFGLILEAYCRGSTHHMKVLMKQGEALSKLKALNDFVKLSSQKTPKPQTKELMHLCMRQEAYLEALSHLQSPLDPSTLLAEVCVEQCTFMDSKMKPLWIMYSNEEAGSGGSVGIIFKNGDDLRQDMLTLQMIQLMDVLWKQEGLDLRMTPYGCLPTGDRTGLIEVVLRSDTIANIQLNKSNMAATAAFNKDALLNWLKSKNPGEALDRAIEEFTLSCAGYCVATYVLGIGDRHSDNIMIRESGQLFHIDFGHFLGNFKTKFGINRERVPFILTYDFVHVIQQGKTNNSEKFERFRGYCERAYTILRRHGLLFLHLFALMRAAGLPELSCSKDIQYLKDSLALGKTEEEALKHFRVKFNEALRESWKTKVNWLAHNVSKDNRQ
Sequence of PI3Kδ (p110δ/p85α) (P27986 whole entry partner): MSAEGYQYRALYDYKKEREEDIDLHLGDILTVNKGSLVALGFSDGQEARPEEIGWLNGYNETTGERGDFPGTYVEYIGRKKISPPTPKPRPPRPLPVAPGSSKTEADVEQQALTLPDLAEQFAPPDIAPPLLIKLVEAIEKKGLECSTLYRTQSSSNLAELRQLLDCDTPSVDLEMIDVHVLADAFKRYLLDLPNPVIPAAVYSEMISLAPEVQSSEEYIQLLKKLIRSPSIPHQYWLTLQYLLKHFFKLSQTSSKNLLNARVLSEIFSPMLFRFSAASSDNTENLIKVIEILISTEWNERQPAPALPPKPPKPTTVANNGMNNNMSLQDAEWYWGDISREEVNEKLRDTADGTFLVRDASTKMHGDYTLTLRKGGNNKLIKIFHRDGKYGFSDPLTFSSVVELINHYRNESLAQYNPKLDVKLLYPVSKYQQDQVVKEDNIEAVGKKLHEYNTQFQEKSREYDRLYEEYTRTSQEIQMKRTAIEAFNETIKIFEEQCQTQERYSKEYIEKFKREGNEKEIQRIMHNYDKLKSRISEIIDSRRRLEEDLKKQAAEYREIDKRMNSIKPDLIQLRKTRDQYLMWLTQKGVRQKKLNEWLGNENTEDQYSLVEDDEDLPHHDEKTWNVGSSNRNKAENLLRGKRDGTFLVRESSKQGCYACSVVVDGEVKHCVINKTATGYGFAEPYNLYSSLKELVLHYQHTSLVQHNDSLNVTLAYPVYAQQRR
Outline: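 SPA with 4 nM p110δ/p85α, 20 μM PIP2, 20 μM ATP plus [γ-^33P]ATP, in 20 mM MOPS pH 6.7, 10 mM MgCl2, 5 mM DTT, 0.03% CHAPS, 0.5% DMSO, room temperature. Stopped with EDTA/ATP, WGA SPA beads, overnight shaking, scintillation counting. IC50 from % control activity vs log concentration.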

[4] = target: PI3Kδ (Homo sapiens (Human), UniProt O00329); experiment: PI3K Enzyme Assay (Example A2, [γ-33P]ATP filter plate); format: biochemical; details: 1000 μM ATP, 50 μM PIP2
Sequence of PI3Kδ (O00329 whole entry, canonical isoform): as the sequence (O00329 whole entry) above
Sequence of PI3Kδ (P27986 whole entry partner, canonical isoform): as the sequence (P27986 whole entry partner) above
Experimental: PI3K isoforms α, β, δ and γ are purchased from Millipore (Bedford, Mass.).
Inhibitors are first diluted serially in DMSO and added to the plate wells before the addition of other reaction components. The final concentration of DMSO in the assay is 0.5%. The PI3K assays are carried out at room temperature in 20 mM MOPS, pH 6.7, 10 mM MgCl2, 5 mM DTT and CHAPS 0.03%. The reaction mixture is prepared containing 50 μM PIP2, kinase and varying concentration of inhibitors. Reactions are initiated by the addition of ATP containing 2.2 μCi [γ-^33P]ATP to a final concentration of 1000 μM. […] After drying by aspiration and blotting, the plate is air dried in an incubator at 37° C. overnight. Packard TopCount adapter (Millipore) is then attached to the plate followed with addition of 120 μL Microscint 20 scintillation cocktail (Perkin Elmer) in each well. […] IC50 determination is performed by fitting the curve of percent control activity versus the log of the inhibitor concentration using the GraphPad Prism 3.0 software.

Structure (SMILES): CCOc1c(C(C)n2nc(C)c3c(N)ncnc32)cc(Cl)c(F)c1C1CNC(=O)C1 (single isomer, unassigned) [Example 347, 4-{3-[1-(4-amino-3-methyl-1H-pyrazolo[3,4-d]pyrimidin-1-yl)ethyl]-5-chloro-2-ethoxy-6-fluorophenyl}pyrrolidin-2-one]
percent tumor growth inhibition ([1]; 0.3 mg/kg oral twice daily for 14 days): 22% | percent tumor growth inhibition ([1]; 1 mg/kg oral twice daily for 14 days): 24% | percent tumor growth inhibition ([1]; 3 mg/kg oral twice daily for 14 days): 36% | percent tumor growth inhibition ([1]; 10 mg/kg oral twice daily for 14 days): 58% | anti-proliferative effects in vitro on Pfeiffer cancer cells [2]: sensitive

Structure (SMILES): CCOc1c(C(C)n2nc(C)c3c(N)ncnc32)cc(Cl)c(C)c1C1CNC(=O)C1 (stereo not drawn) [Example 310, 4-{3-[1-(4-amino-3-methyl-1H-pyrazolo[3,4-d]pyrimidin-1-yl)ethyl]-5-chloro-2-ethoxy-6-methylphenyl}pyrrolidin-2-one]
IC50 [3]: < 10 nM

Structure (SMILES): COc1c(C(C)n2nc(C)c3c(N)ncnc32)cc(Cl)c(C)c1C1CNC(=O)O1 (stereo not drawn) [Example 325, 5-{3-[1-(4-Amino-3-methyl-1H-pyrazolo[3,4-d]pyrimidin-1-yl)ethyl]-5-chloro-2-methoxy-6-methylphenyl}-1,3-oxazolidin-2-one]
IC50 [3]: < 10 nM

Results, then the compound that gave them:

IC50 [4]: > 500 nM
Structure (SMILES): COc1c([C@@H](C)n2nc(C)c3c(N)ncnc32)cc(Cl)c(C#N)c1C1CN(C[C@H](C)O)C1 [Example 361, 4-((R)-1-(4-amino-3-methyl-1H-pyrazolo[3,4-d]pyrimidin-1-yl)ethyl)-6-chloro-2-(1-((S)-2-hydroxypropyl)azetidin-3-yl)-3-methoxybenzonitrile]

IC50 [3]: < 10 nM
Structure (SMILES): COc1c([C@H](C)n2nc(C)c3c(N)ncnc32)cc(Cl)c(C#N)c1C1CN(C[C@@H](C)O)C1 [Example 362]
